Source: patent EP2119770B1, “Production of alpha-oxyfunctionalized carbonyl compounds” (priority 2008, dated 2009)

Columns and labels:
Type in all cases: biochemical
Gox2684 = biological target: T1, Gox2684 (Gluconobacter oxydans, UniProt Q5HXK5); assay: Enzyme activity assay (rate of NAD(P)H decrease at 340 nm), Gox2684; settings: for activities: Gox2684, substrates with highest activities; for Specific Activities: Tab. 8, GOX2684, cofactor NADPH, 10 mM substrate, pH 7.0, 30 °C
T1 sequence (Q5HXK5 1-357): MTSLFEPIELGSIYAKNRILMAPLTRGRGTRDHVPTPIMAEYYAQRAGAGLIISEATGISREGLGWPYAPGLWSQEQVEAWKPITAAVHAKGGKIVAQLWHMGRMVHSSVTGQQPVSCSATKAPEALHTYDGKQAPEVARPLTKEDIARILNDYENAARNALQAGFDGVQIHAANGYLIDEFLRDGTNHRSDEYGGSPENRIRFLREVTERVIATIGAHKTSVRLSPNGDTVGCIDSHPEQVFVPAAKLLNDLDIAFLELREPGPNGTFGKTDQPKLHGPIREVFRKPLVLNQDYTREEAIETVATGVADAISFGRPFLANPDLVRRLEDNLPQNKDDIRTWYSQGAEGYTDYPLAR
Procedure, shortened: (§1)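 Purified enzymes assayed at 30 °C in 40 mM potassium phosphate pH 7.0 with 10 mM substrate and NAD(P)H (0.025 mM, or 0.05 mM in the standard mixture), started by adding enzyme or substrate. Activity followed as the rate of NAD(P)H decrease at 340 nm; one unit = 1 µmol pyridine nucleotide converted per min; protein measured by Bradford.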

Gox1615 = biological target: T2, Gox1615 (Gluconobacter oxydans, UniProt Q5FQJ0); assay: Enzyme activity assay (rate of NAD(P)H decrease at 340 nm), Gox1615; settings: 10 mM substrate; for Specific Activity: Tab. 5, Gox1615, cofactor NADPH, pH 7.0, 30 °C; for Activity: Table 3, Gox1615, K-phosphate buffer pH 7.0, 0.05 mM NAD(P)H, 30 °C
T2 sequence (Q5FQJ0 1-332): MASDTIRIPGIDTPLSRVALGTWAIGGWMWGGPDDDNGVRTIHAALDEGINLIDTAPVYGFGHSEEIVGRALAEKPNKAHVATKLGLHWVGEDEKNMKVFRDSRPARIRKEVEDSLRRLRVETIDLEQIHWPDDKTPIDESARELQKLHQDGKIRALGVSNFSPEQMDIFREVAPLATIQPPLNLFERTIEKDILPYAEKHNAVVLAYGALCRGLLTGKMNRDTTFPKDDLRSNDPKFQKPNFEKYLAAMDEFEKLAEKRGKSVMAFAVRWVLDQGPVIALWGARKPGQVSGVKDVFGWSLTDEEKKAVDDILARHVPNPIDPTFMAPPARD
Procedure, shortened: as §1

Gox0646 = biological target: T3, Gox0646 (Gluconobacter oxydans, UniProt Q5FT73); assay: Enzyme activity assay (rate of NAD(P)H decrease at 340 nm), Gox0646; settings: 10 mM substrate; for Specific Activities: Tab. 9, GOX0646, cofactor NADPH, pH 7.0, 30 °C; for Activity: Table 3, Gox0646, K-phosphate buffer pH 7.0, 0.05 mM NAD(P)H, 30 °C
T3 sequence (Q5FT73 1-264): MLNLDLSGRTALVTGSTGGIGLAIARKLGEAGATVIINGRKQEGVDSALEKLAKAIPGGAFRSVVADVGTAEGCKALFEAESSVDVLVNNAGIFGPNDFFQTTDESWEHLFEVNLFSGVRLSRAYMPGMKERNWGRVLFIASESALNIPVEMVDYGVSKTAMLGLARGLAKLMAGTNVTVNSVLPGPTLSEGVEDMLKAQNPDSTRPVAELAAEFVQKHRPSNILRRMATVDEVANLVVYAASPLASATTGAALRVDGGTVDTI
Procedure: Measurment of enzyme activity: NADPH-dependent alpha-ketocarbonyl reductases were assayed by a routine method used for NAD(P)-linked enzymes by recording the rate of decrease of NADPH at 340 nm (ε = 6.22 mM^-1 x cm^-1)) with substrates at 30 °C. The reaction mixture (1 ml) for reduction of alpha-ketocarbonyl substrates contained 10 mM substrate, 40 mM potassium phosphate buffer pH 7.0, 0.025 mM NAD(P)H , and the enzyme. Reactions were induced by addition of enzyme or substrate. One unit of enzyme activity was defined as the amount of enzyme catalyzing the conversion of 1 µmol of pyridine nucleotide per min at 30 °C.
NADPH-dependent α-ketocarbonyl reductases were assayed by a routine method used for NAD(P)-linked enzymes by recording the rate of decrease of NADPH at 340 nm (ε = 6.22 mM^-1.cm^-1) with substrates at 30 °C. The reaction mixture (1 ml) for reduction of alpha-ketocarbonyl substrates contained 10 mM substrate, 40 mM potassium phosphate buffer pH 7.0, 0.025 mM NADPH , and the enzyme. Reactions were induced by addition of enzyme or substrate. One unit of enzyme activity was defined as the amount of enzyme catalyzing the conversion of 1 µmol of pyridine nucleotide per min at 30 °C.
For each enzyme (Gox0313, Gox0502, Gox0644, Gox0646, Gox1615, Gox2107, and Gox2684 respectively), fresh enzyme preparations were used to validate the substrate spectrum and the kinetic activity. […] Purified NAD(P)-dependent oxidoreductases were assayed at 30 °C by a routine method used for NAD(P)-linked enzymes by recording the rate of decrease of NAD(P)H at 340 nm (ε = […]) with substrates capable of reduction reactions. The standard reaction mixture (1 ml) for the reduction reactions of substrates contained 10 mM substrate, 40 mM potassium phosphate buffer (K-phosphate buffer) pH 7.0, 0.05 mM NAD(P)H, and the enzyme unless otherwise noted. Reactions were induced by addition of enzyme or substrate. One unit of enzyme activity was defined as the amount of enzyme catalyzing the conversion of 1 µmol of pyridine nucleotide per min at 30 °C. Measurement of the protein content was performed by the method of Bradford in Anal. Biochem. 72:248-254 (1976). Table 3: Summary of enzymatic activities with α-diketones, α-ketoaldehydes and /or α-ketoesters

Gox0644 = Gox0644 (Gluconobacter oxydans, UniProt Q5FT75); assay: Regioselectivity of bioconversion, product determined by NMR, Gox0644; settings: bioconversion with Gox1122 cofactor regeneration, NMR analysis
Description: Cofactor regeneration: A prerequisite for the production of α-hydroxycarbonyl compounds is the regeneration of the expensive coenzymes and the stability of the protein catalysts. By coupling two coenzyme-dependent enzyme reactions, NADPH can be continuously regenerated. […] For this purpose, we used a combined enzymatic reaction between the NADPH-dependent oxidoreductases that form α-hydroxycarbonyl compounds and the aldehyde dehydrogenase GOX1122 (see Schweiger, P. et al., J. Mol. Microbiol. Biotechnol. 13:147-155 (2007)) that produces the reduced cofactor in the course of acetaldehyde oxidation. […] The biotransformation was performed in a batch process (total volume 2.5 ml 40 mM potassium phosphate buffer pH 7). 30 µg of purified Gox1122 and of NADPH-dependent oxidoreductases and 50 µM NADPH were added. The substrate concentration in the beginning was 20 mM 2,3-pentanedione and 20 mM acetaldehyde. Fresh substrates were added every 60 min (20 mM each).
NMR: The 2.5 ml bioconversion was extracted with two times equal volume of d-chloroform. ^1H and ^13C NMR spectra were recorded on a DPX 300 Spectrometer (300 MHz) and referenced to the CDCl3 internal standard. Chemical samples analyzed with Bruker NMR Suite 2.5 software constructed final product structures.
2.7 Regioselectivity of GOX0644 and GOX1615: Tab. […] Tab. 10: Summary of Regioselectivity
5 ml bioconversions for determining regioselectivity were set up with 2 mg of proteins Gox0644 and Gox1122, 40 mM potassium phosphate buffer, pH 7.0, 50 µM NADPH. Substrates (20 mM 2,3 pentanedione and acetaldehyde) were added every 30 min. The reaction was followed for 3 h to produce quantities between 40-60 mg of product (hydroxy-pentanone).

SMILES | activities (Gox2684) | Specific Activities (Gox2684) | Specific Activity (Gox1615) | Activity (Gox1615) | Specific Activities (Gox0646) | Activity (Gox0646) | Product (regioselective reduction) (Gox0644) | Product (regioselective reduction) (Gox0644; listed as 2,3 pentanedione)
CCCC(=O)C(C)=O [2,3-hexanedione] | 2.3 U/mg protein | 2.3 U/mg | 6.5 U/mg | 6.5 U/mg | 8.0 U/mg | 8.0 U/mg | 2-hydroxy-hexane-3-one | –
CCC(=O)C(C)=O [2,3-pentanedione] | – | 0.6 U/mg | 6.2 U/mg | 6.2 U/mg | 8.0 U/mg | 8.0 U/mg | 2-hydroxy-pentane-3-one | 2-hydroxy-pentan-3-one
CCC(=O)C(=O)CC [3,4-hexanedione] | – | 0.6 U/mg | 2 U/mg | 2.0 U/mg | 2.0 U/mg | 2.0 U/mg | – | –
CC(=O)C=O [methylglyoxal] | – | 1.4 U/mg | 19.3 U/mg | 19.3 U/mg | 0.2 U/mg | 0.2 U/mg | – | –
O=CC(=O)c1ccccc1 [phenylglyoxal] | 2.1 U/mg protein | 2.1 U/mg | 19.1 U/mg | 19.1 U/mg | – | – | 2-hydroxy-2-phenylacetaldehyde | –
